Measured values published in publication PMC10319809, “Chronic UCN2 treatment desensitizes CRHR2 and improves insulin sensitivity” (Nature Communications, 2023).
Where no end group is shown, it is not given here.

Columns and labels:
HA-tagged CRHR2a = target: T1, HA-tagged CRHR2a (Homo sapiens, UniProt Q13324); experiment: CRHR2 surface expression / internalization, confocal imaging of HEK293 cells with HA-tagged CRHR2a; assay type: cell-based; details: 100 nM UCN2, HEK cells with HA-tagged CRHR2a; n = 4
T1 construct: expressed in transfected cells; host or cells: HEK293 cells, transient transfection with pcDNA3.1(+) plasmid using Lipofectamine 3000
T1 sequence (Q13324 1-411): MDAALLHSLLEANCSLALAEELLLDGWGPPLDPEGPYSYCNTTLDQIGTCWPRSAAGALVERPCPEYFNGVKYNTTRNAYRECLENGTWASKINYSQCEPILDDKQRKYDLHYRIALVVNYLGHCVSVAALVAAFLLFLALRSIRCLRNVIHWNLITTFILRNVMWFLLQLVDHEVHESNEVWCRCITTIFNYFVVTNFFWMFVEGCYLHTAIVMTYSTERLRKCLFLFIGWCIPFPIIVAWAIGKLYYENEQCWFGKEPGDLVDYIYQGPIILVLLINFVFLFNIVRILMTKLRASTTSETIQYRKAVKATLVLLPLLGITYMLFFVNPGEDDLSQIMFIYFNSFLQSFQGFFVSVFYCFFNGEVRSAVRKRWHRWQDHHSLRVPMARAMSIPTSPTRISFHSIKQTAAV
Experimental: β-Arrestin recruitment can sometimes cause the internalization of the receptor to which it is recruited. To assess whether CRHR2 is internalized following UCN2 treatment, we quantified CRHR2 receptor surface expression using confocal imaging of HEK cells transiently transfected with a plasmid expressing a […] CRHR2a construct (Fig. S3). Cells were treated with saline or 100 nM (−7.0 log[M]) UCN2 and surface expression was determined by fluorescent anti-HA antibody-binding, with and without permeabilizing the cell.
HEK293 cells were plated at a density of 10,000 cells per well into tissue culture-treated clear bottomed, optical microscopy quality, 96 well plates (Perkin Elmer, PhenoPlate 96-well) and grown for 1 day to ~40–60% confluency. Twenty-four hours after plating, cells were transfected with 50 ng of pcDNA3.1(+) plasmid encoding a N-terminally tagged CRHR2α construct using Lipofectamine 3000 (Thermofisher) following manufacturing protocols. Twenty-four hours following transfection, agonists were then added for 30 min and cells were incubated at 37 °C. Prior to imaging, cells were washed once with PBS and fixed with ice-cold 4% paraformaldehyde in PBS for 15 min. After washing 3 times with PBS, cells were kept in the Alexa Fluor 647 anti-HA (1:2000 dilution, BioLegend cat# 682404) diluted in 5% normal goat serum in PBS. […]

hCRHR2α G13 = target: T2, hCRHR2α G13 (Homo sapiens, UniProt Q13324); experiment: ebBRET EMTA, G13 biosensor; assay type: cell-based; details: HEK293 cells, CRHR2a, n = 2 independent experiments
T2 construct: expressed in transfected cells; host or cells: HEK293 cells (Millipore Sigma), transient PEI co-transfection with biosensor plasmids at Domain Therapeutics
T2 sequence (Q13324 1-411): T1 sequence (Q13324 1-411)
Experimental: Typically, GPCR desensitization is carried out through the recruitment of β-Arrestins or alternative G-proteins to the receptor. To identify whether these proteins are recruited to CRHR2 in response to UCN2, enhanced bystander bioluminescence resonance energy transfer (ebBRET)-based effector membrane translocation assays (EMTA) were carried out in HEK293 cells[28],[29]. Cells were co-transfected with plasmids expressing unmodified CRHR2a (alpha isoform) and one of various pathway-specific biosensors. […]
Effector membrane translocation biosensor assays (bioSensAll®) were conducted at Domain Therapeutics NA Inc. (Montreal, QC, Canada) and described in cells[28],[29]. […] Briefly, DNA and PEI were diluted separately in 150 mM NaCl, mixed and then incubated for at least 20 min at room temperature (note: salmon sperm DNA (Invitrogen) was used to adjust the total amount of DNA transfected to a final quantity of 1 ug per mL of cell culture to be transfected). During the 20-minute incubation, HEK293 cells were detached, counted and resuspended into cell culture medium to a final density of 350,000 cells per mL. […] Cells were then incubated at room temperature for 10 min and BRET readings subsequently collected with a 0.4 s integration time on a Synergy NEO plate reader (BioTek Instruments, Inc., USA; filters: 400 nm/70 nm, 515 nm/20 nm). […]

In the case of “IVLSLDVPIGLLQILLEQARARAAREQATTNARILARVGHC-NH2 (C-terminus assumed) [UCN2, Urocortin 2]”, the “CRHR2 internalization / surface receptor expression” value (HA-tagged CRHR2a) is reported as “increase of CRHR2 internalization and decreased surface receptor expression” and the G13 recruitment (hCRHR2α G13) is reported as “not recruited”.
